One compound from article PMC5871770, “Tlr1612 is the major repressor of cell aggregation in the light-color-dependent c-di-GMP signaling network of Thermosynechococcus vulcanus” (Scientific Reports, 2018) can be followed below.

One experiment addresses T1, SesA.
T1 construct: PCC 6803 from pTCH2031V; pre-irradiated with blue light
Nature of the experiment: EnzChek pyrophosphate assay, initial rate of diguanylate cyclase. Particulars: 31 °C, pH 7.5, 20 mM MgCl2, 100 µM GTP, 0.2 µM protein, blue-light pre-irradiated; allosteric product inhibition at I-site (RXXD). Format: biochemical.

For experiment [1], the target named is T2, full-length YcgR of Escherichia coli (Escherichia coli, UniProt P76010).
T2 construct: full length between mCyPet and mYPet (FRET reporters); N-terminal His tag, pET28V, E. coli expressed
T2 sequence (P76010 1-244): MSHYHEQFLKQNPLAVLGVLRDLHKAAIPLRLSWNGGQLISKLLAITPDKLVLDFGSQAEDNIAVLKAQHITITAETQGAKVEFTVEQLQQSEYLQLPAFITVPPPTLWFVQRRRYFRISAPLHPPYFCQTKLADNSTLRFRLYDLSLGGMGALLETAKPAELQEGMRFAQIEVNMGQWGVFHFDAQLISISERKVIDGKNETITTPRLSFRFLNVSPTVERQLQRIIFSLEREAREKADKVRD
Nature of the experiment: FRET biosensor titration (F527/F475). Format: binding. Particulars: read-out: affinity.

The target in experiment [2] is T3, Tll0007-PilZ (FRET biosensor mCyPet-Tll0007 PilZ-mYPet) (Thermostichus vulcanus, UniProt E5RST0, R605A).
T3 construct: gene Tvtll0007; N-terminal His tag, pET28V, E. coli expressed
T3 sequence (E5RST0 entry or part of it R605A): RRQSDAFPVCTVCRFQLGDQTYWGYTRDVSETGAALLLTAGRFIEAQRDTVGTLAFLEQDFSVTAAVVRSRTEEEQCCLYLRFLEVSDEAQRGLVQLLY
Nature of the experiment: FRET biosensor titration (F527/F475). It is filed as binding. Particulars: 31 °C, pH 7.5, 100 mM NaCl, 10% glycerol, 50 nM protein; c-di-GMP 10 nM to 1 mM; PilZ RXXXR motif mutant.

Experiment [3] deals with T4, Tll0007-PilZ (FRET biosensor mCyPet-Tll0007 PilZ-mYPet) (Thermostichus vulcanus, UniProt E5RST0).
T4 construct: gene Tvtll0007; N-terminal His tag, pET28V, E. coli expressed
T4 sequence (E5RST0 entry or part of it): as the sequence (E5RST0 entry or part of it R605A) above, with A6R counted along it
Nature of the experiment: FRET biosensor titration (F527/F475). It is filed as binding. Particulars: 31 °C, pH 7.5, 100 mM NaCl, 10% glycerol, 50 nM protein; PilZ domain.

By IC50 is commonly meant the midpoint of a concentration-inhibition curve.

For `Nc1nc2c(ncn2[C@@H]2O[C@@H]3CO[P@](=O)(O)O[C@H]4[C@@H](O)[C@H](n5cnc6c(=O)[nH]c(N)nc65)O[C@@H]4CO[P@](=O)(O)O[C@H]3[C@H]2O)c(=O)[nH]1` [c-di-GMP, bis-(3′-5′)-cyclic diguanylic acid], on SesA, half-maximal inhibition (IC50) was put at 1.07 ± 0.13 µM. In addition, the figures for the Kd in experiment [1] and in experiment [3] were 0.42 ± 0.08 µM and 63.9 ± 5.1 µM, respectively. Besides, the “no FRET increase (no binding detected)” value in experiment [2] is “R605A lacked the corresponding increase in FRET efficiency upon c-di-GMP addition”.
